# Data as given in ChEMBL document CHEMBL3885861, “Open TG-GATES”.
# Organism: Rattus norvegicus
# Assay: Open TG-GATES - Regimen: Single
# Assay type: toxicity, organism-based, Sprague-Dawley
# Parameters: regimen Single, gender Male, age 6 weeks
# Settings: in vivo, po, route gavage; for APTT / Bas / Eos / Fbg / Hb / Ht / Lym / MCH / MCHC / MCV / Mono / Neu / PT / Plat / RBC / Ret / WBC: tissue Blood; for KIDNEY_L / KIDNEY_R / KIDNEY_TOTAL: tissue Kidney; for LIVER: tissue Liver; for ALP / ALT / AST / BUN / CRE / Ca / DBIL / GLC / IP / K / LDH / Na / PL / RALB / TBIL / TC / TG / TP / gamma-GTP: tissue Plasma
# [1] = 30 mg/kg, 3 h, dose level Middle
# [2] = 30 mg/kg, 6 h, dose level Middle
# [3] = 30 mg/kg, 9 h, dose level Middle
# [4] = 30 mg/kg, 24 h, dose level Middle
# [5] = 100 mg/kg, 3 h, dose level High
# [6] = 100 mg/kg, 6 h, dose level High
# [7] = 100 mg/kg, 9 h, dose level High
# [8] = 100 mg/kg, 24 h, dose level High
smiles,measurement,setting,value
CSc1ccc2c(c1)N(CCC1CCCCN1C)c1ccccc1S2 (stereo not given) [THIORIDAZINE],TERMINAL_BW,[1],215.8 g
same,APTT,[1],16.7 s
same,Bas,[1],0%
same,Eos,[1],1%
same,Fbg,[1],201.2 mg/dL
same,Hb,[1],12.4 g/dL
same,Ht,[1],37.2%
same,Lym,[1],73.8%
same,MCH,[1],22.1 pg
same,MCHC,[1],33.3%
same,MCV,[1],66.4 fL
same,Mono,[1],8.8%
same,Neu,[1],16.8%
same,PT,[1],12.5 s
same,Plat,[1],102.7 x10_4/uL
same,RBC,[1],560.6 x10_4/ul
same,Ret,[1],8.6%
same,WBC,[1],77.9 x10_2/uL
same,KIDNEY_L,[1],1 g
same,KIDNEY_R,[1],1 g
same,KIDNEY_TOTAL,[1],2 g
same,LIVER,[1],10.5 g
same,ALP,[1],794 IU/L
same,ALT,[1],37.8 IU/L
same,AST,[1],66.6 IU/L
same,BUN,[1],12.4 mg/dL
same,CRE,[1],0.5 mg/dL
same,Ca,[1],11.1 mg/dL
same,DBIL,[1],0.04 mg/dL
same,GLC,[1],206.6 mg/dL
same,IP,[1],10.3 mg/dL
same,K,[1],4.4 meq/L
same,LDH,[1],91.2 IU/L
same,Na,[1],139 meq/L
same,PL,[1],127.2 mg/dL
same,RALB,[1],3.6 g/dL
same,TBIL,[1],0.4 mg/dL
same,TC,[1],70.2 mg/dL
same,TG,[1],43.6 mg/dL
same,TP,[1],5.2 g/dL
same,gamma-GTP,[1],1 IU/L
same,TERMINAL_BW,[2],216.3 g
same,APTT,[2],15.9 s
same,Bas,[2],0%
same,Eos,[2],0.6%
same,Fbg,[2],230.2 mg/dL
same,Hb,[2],12.5 g/dL
same,Ht,[2],37.5%
same,Lym,[2],74.2%
same,MCH,[2],21.9 pg
same,MCHC,[2],33.2%
same,MCV,[2],66 fL
same,Mono,[2],7.8%
same,Neu,[2],17.4%
same,PT,[2],12 s
same,RBC,[2],569.4 x10_4/ul
same,Ret,[2],8%
same,WBC,[2],91.2 x10_2/uL
same,KIDNEY_L,[2],1 g
same,KIDNEY_R,[2],1 g
same,KIDNEY_TOTAL,[2],2 g
same,LIVER,[2],10.3 g
same,ALP,[2],765.6 IU/L
same,ALT,[2],30.2 IU/L
same,AST,[2],63.2 IU/L
same,BUN,[2],10.2 mg/dL
same,CRE,[2],0.5 mg/dL
same,Ca,[2],10.8 mg/dL
same,DBIL,[2],0.022 mg/dL
same,GLC,[2],208.6 mg/dL
same,IP,[2],10.9 mg/dL
same,K,[2],4.5 meq/L
same,LDH,[2],98.4 IU/L
same,Na,[2],139.4 meq/L
same,PL,[2],154 mg/dL
same,RALB,[2],3.8 g/dL
same,TBIL,[2],0.4 mg/dL
same,TC,[2],81.4 mg/dL
same,TG,[2],62.8 mg/dL
same,TP,[2],5.4 g/dL
same,gamma-GTP,[2],1.6 IU/L
same,TERMINAL_BW,[3],213.1 g
same,APTT,[3],16.2 s
same,Bas,[3],0%
same,Eos,[3],0.4%
same,Fbg,[3],213.4 mg/dL
same,Hb,[3],12.6 g/dL
same,Ht,[3],38%
same,Lym,[3],80.6%
same,MCH,[3],21.8 pg
same,MCHC,[3],33.3%
same,MCV,[3],65.6 fL
same,Mono,[3],6%
same,Neu,[3],13.2%
same,PT,[3],12.3 s
same,Plat,[3],108 x10_4/uL
same,RBC,[3],578.8 x10_4/ul
same,Ret,[3],7.8%
same,WBC,[3],109.8 x10_2/uL
same,KIDNEY_L,[3],0.9 g
same,KIDNEY_R,[3],1 g
same,KIDNEY_TOTAL,[3],1.9 g
same,LIVER,[3],9.6 g
same,ALP,[3],971.8 IU/L
same,ALT,[3],28.2 IU/L
same,AST,[3],58.2 IU/L
same,BUN,[3],12.6 mg/dL
same,CRE,[3],0.6 mg/dL
same,Ca,[3],10.9 mg/dL
same,DBIL,[3],0.018 mg/dL
same,GLC,[3],215.6 mg/dL
same,IP,[3],10.6 mg/dL
same,K,[3],4.3 meq/L
same,LDH,[3],82.4 IU/L
same,Na,[3],141 meq/L
same,PL,[3],148.8 mg/dL
same,RALB,[3],3.8 g/dL
same,TBIL,[3],0.4 mg/dL
same,TC,[3],82.2 mg/dL
same,TG,[3],59.6 mg/dL
same,TP,[3],5.6 g/dL
same,gamma-GTP,[3],1.4 IU/L
same,TERMINAL_BW,[4],225.1 g
same,APTT,[4],16 s
same,Bas,[4],0%
same,Eos,[4],1%
same,Fbg,[4],215.4 mg/dL
same,Hb,[4],13.4 g/dL
same,Ht,[4],40.3%
same,Lym,[4],77.2%
same,MCH,[4],21.5 pg
same,MCHC,[4],33.3%
same,MCV,[4],64.6 fL
same,Mono,[4],9%
same,Neu,[4],12.8%
same,PT,[4],12.1 s
same,Plat,[4],108 x10_4/uL
same,RBC,[4],623.4 x10_4/ul
same,Ret,[4],8%
same,WBC,[4],124.9 x10_2/uL
same,KIDNEY_L,[4],1 g
same,KIDNEY_R,[4],1 g
same,KIDNEY_TOTAL,[4],2 g
same,LIVER,[4],11.7 g
same,ALP,[4],905.2 IU/L
same,ALT,[4],43 IU/L
same,AST,[4],69.8 IU/L
same,BUN,[4],19.4 mg/dL
same,CRE,[4],0.5 mg/dL
same,Ca,[4],11.5 mg/dL
same,DBIL,[4],0.062 mg/dL
same,GLC,[4],190.2 mg/dL
same,IP,[4],9.3 mg/dL
same,K,[4],4.9 meq/L
same,LDH,[4],89.2 IU/L
same,Na,[4],139.2 meq/L
same,PL,[4],163 mg/dL
same,RALB,[4],4 g/dL
same,TBIL,[4],0.3 mg/dL
same,TC,[4],84.4 mg/dL
same,TG,[4],119.8 mg/dL
same,TP,[4],5.9 g/dL
same,gamma-GTP,[4],1 IU/L
same,TERMINAL_BW,[5],217.7 g
same,APTT,[5],16.7 s
same,Bas,[5],0%
same,Eos,[5],1%
same,Fbg,[5],205.2 mg/dL
same,Hb,[5],12.6 g/dL
same,Ht,[5],38.2%
same,Lym,[5],70.2%
same,MCH,[5],21.9 pg
same,MCHC,[5],33.1%
same,MCV,[5],66.3 fL
same,Mono,[5],11%
same,Neu,[5],17.8%
same,PT,[5],12.2 s
same,RBC,[5],576.8 x10_4/ul
same,Ret,[5],8.6%
same,WBC,[5],56.2 x10_2/uL
same,KIDNEY_L,[5],1 g
same,KIDNEY_R,[5],1 g
same,KIDNEY_TOTAL,[5],2 g
same,LIVER,[5],10.5 g
same,ALP,[5],990.6 IU/L
same,ALT,[5],41.8 IU/L
same,AST,[5],70.2 IU/L
same,BUN,[5],11.2 mg/dL
same,CRE,[5],0.6 mg/dL
same,Ca,[5],11 mg/dL
same,DBIL,[5],0.018 mg/dL
same,GLC,[5],215 mg/dL
same,K,[5],4.2 meq/L
same,LDH,[5],163.8 IU/L
same,Na,[5],139.8 meq/L
same,PL,[5],138.2 mg/dL
same,RALB,[5],3.7 g/dL
same,TBIL,[5],0.3 mg/dL
same,TC,[5],80.2 mg/dL
same,TG,[5],34.4 mg/dL
same,TP,[5],5.3 g/dL
same,gamma-GTP,[5],1 IU/L
same,TERMINAL_BW,[6],215 g
same,APTT,[6],16.9 s
same,Bas,[6],0%
same,Eos,[6],0.6%
same,Fbg,[6],204.6 mg/dL
same,Hb,[6],12.5 g/dL
same,Ht,[6],37.7%
same,Lym,[6],71.6%
same,MCH,[6],21.6 pg
same,MCHC,[6],33.1%
same,MCV,[6],65.1 fL
same,Mono,[6],8.6%
same,Neu,[6],18.6%
same,PT,[6],12.2 s
same,Plat,[6],106.5 x10_4/uL
same,RBC,[6],579 x10_4/ul
same,Ret,[6],7.8%
same,WBC,[6],84.2 x10_2/uL
same,KIDNEY_L,[6],1 g
same,KIDNEY_R,[6],1 g
same,KIDNEY_TOTAL,[6],2 g
same,LIVER,[6],9.4 g
same,ALP,[6],868.4 IU/L
same,ALT,[6],30.8 IU/L
same,AST,[6],63.8 IU/L
same,BUN,[6],8.2 mg/dL
same,CRE,[6],0.5 mg/dL
same,Ca,[6],10.5 mg/dL
same,DBIL,[6],0.016 mg/dL
same,GLC,[6],211 mg/dL
same,IP,[6],10.6 mg/dL
same,K,[6],4.5 meq/L
same,LDH,[6],166.6 IU/L
same,Na,[6],139.6 meq/L
same,PL,[6],135.2 mg/dL
same,RALB,[6],3.7 g/dL
same,TBIL,[6],0.4 mg/dL
same,TC,[6],77.8 mg/dL
same,TG,[6],19.6 mg/dL
same,TP,[6],5.4 g/dL
same,gamma-GTP,[6],2.6 IU/L
same,TERMINAL_BW,[7],210.8 g
same,APTT,[7],16.3 s
same,Bas,[7],0%
same,Eos,[7],0.4%
same,Fbg,[7],215.6 mg/dL
same,Hb,[7],12.5 g/dL
same,Ht,[7],38.3%
same,Lym,[7],76.8%
same,MCH,[7],21 pg
same,MCHC,[7],32.8%
same,MCV,[7],64.1 fL
same,Mono,[7],7.2%
same,Neu,[7],15.6%
same,PT,[7],12.1 s
same,Plat,[7],110.2 x10_4/uL
same,RBC,[7],598.4 x10_4/ul
same,Ret,[7],7.3%
same,WBC,[7],80.7 x10_2/uL
same,KIDNEY_L,[7],1 g
same,KIDNEY_R,[7],1 g
same,KIDNEY_TOTAL,[7],2 g
same,LIVER,[7],9.4 g
same,ALP,[7],850.6 IU/L
same,ALT,[7],31.6 IU/L
same,AST,[7],61.2 IU/L
same,BUN,[7],9.6 mg/dL
same,CRE,[7],0.5 mg/dL
same,Ca,[7],10.6 mg/dL
same,DBIL,[7],0.018 mg/dL
same,GLC,[7],223.4 mg/dL
same,IP,[7],9.8 mg/dL
same,K,[7],4.2 meq/L
same,LDH,[7],144.8 IU/L
same,Na,[7],141.4 meq/L
same,PL,[7],155.2 mg/dL
same,RALB,[7],3.7 g/dL
same,TBIL,[7],0.4 mg/dL
same,TC,[7],84 mg/dL
same,TG,[7],28.4 mg/dL
same,TP,[7],5.4 g/dL
same,gamma-GTP,[7],1.2 IU/L
same,TERMINAL_BW,[8],217.8 g
same,APTT,[8],16.1 s
same,Bas,[8],0%
same,Eos,[8],1%
same,Fbg,[8],209 mg/dL
same,Hb,[8],13.5 g/dL
same,Ht,[8],40.5%
same,Lym,[8],84.4%
same,MCH,[8],21.5 pg
same,MCHC,[8],33.4%
same,MCV,[8],64.6 fL
same,Mono,[8],4.6%
same,Neu,[8],10%
same,PT,[8],12.2 s
same,Plat,[8],125.1 x10_4/uL
same,RBC,[8],628 x10_4/ul
same,Ret,[8],7.3%
same,WBC,[8],102 x10_2/uL
same,KIDNEY_L,[8],1 g
same,KIDNEY_R,[8],1 g
same,KIDNEY_TOTAL,[8],2.1 g
same,LIVER,[8],10.9 g
same,ALP,[8],952.2 IU/L
same,ALT,[8],35.4 IU/L
same,AST,[8],62.4 IU/L
same,BUN,[8],21.4 mg/dL
same,CRE,[8],0.5 mg/dL
same,Ca,[8],11.2 mg/dL
same,DBIL,[8],0.022 mg/dL
same,GLC,[8],210.8 mg/dL
same,IP,[8],9.8 mg/dL
same,K,[8],4.5 meq/L
same,LDH,[8],166.8 IU/L
same,Na,[8],140.4 meq/L
same,PL,[8],172.6 mg/dL
same,RALB,[8],4.2 g/dL
same,TBIL,[8],0.3 mg/dL
same,TC,[8],91.4 mg/dL
same,TG,[8],97.8 mg/dL
same,TP,[8],6.1 g/dL
same,gamma-GTP,[8],1.4 IU/L
